Assay results reported in PubChem BioAssay AID2060507 (Molecular Pharmacology Branch, DTP, NCI, 2025).

Test system: 519858-162-T-J1-PDC complex spheroid viability
Assay: Anticancer human tumor 519858-162-T-J1-PDC patient-derived colon adenocarcinoma cell line growth inhibition [GQUAD]
Settings: for IC50: curve of first compound; for viability, T/C: stronger effect = lower value
How it was run: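 Tumor cells were grown as complex spheroids with HUVEC endothelial cells and mesenchymal stem cells as stroma. G-quadruplex stabilizers were combined with targeted agents over half-log dilutions from near the clinical Cmax, or from 10 microM.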

[1] = second compound 0.0316 µM, first compound 0.0316 µM
[2] = second compound 0.0316 µM, first compound 0.1 µM
[3] = second compound 0.0316 µM, first compound 0.316 µM
[4] = second compound 0.0316 µM, first compound 1 µM
[5] = second compound 0.0316 µM, first compound 3.16 µM
[6] = second compound 0.0316 µM, first compound 10 µM
[7] = second compound 0.1 µM, first compound 0.0316 µM
[8] = second compound 0.1 µM, first compound 0.1 µM
[9] = second compound 0.1 µM, first compound 0.316 µM
[10] = second compound 0.1 µM, first compound 1 µM
[11] = second compound 0.1 µM, first compound 3.16 µM
[12] = second compound 0.1 µM, first compound 10 µM
[13] = second compound 0.316 µM, first compound 0.0316 µM
[14] = second compound 0.316 µM, first compound 0.1 µM
[15] = second compound 0.316 µM, first compound 0.316 µM
[16] = second compound 0.316 µM, first compound 1 µM
[17] = second compound 0.316 µM, first compound 3.16 µM
[18] = second compound 0.316 µM, first compound 10 µM
[19] = second compound 1 µM, first compound 0.0316 µM
[20] = second compound 1 µM, first compound 0.1 µM
[21] = second compound 1 µM, first compound 0.316 µM
[22] = second compound 1 µM, first compound 1 µM
[23] = second compound 1 µM, first compound 3.16 µM
[24] = second compound 1 µM, first compound 10 µM
[25] = second compound 3.16 µM, first compound 0.0316 µM
[26] = second compound 3.16 µM, first compound 0.1 µM
[27] = second compound 3.16 µM, first compound 0.316 µM
[28] = second compound 3.16 µM, first compound 1 µM
[29] = second compound 3.16 µM, first compound 3.16 µM
[30] = second compound 3.16 µM, first compound 10 µM
[31] = second compound 10 µM, first compound 0.0316 µM
[32] = second compound 10 µM, first compound 0.1 µM
[33] = second compound 10 µM, first compound 0.316 µM
[34] = second compound 10 µM, first compound 1 µM
[35] = second compound 10 µM, first compound 3.16 µM
[36] = second compound 10 µM, first compound 10 µM
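Note: spheroids exposed to compounds for 7 days.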
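Throughout, for viability, T/C: 100% = DMSO vehicle control viability.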

## C#Cc1c(F)ccc2cc(O)cc(-c3ncc4c(N5CC6CCC(C5)N6)nc(OCC56CCCN5CC(F)C6)nc4c3F)c12 (stereo not drawn) + Cc1cnc(CNC(=O)c2c(=O)c3ccc(N4CCCN(C)CC4)nc3n3c2sc2ccccc23)cn1
Second compound 0.0316 µM
  IC50: > 10 µM
Second compound 0.1 µM
  IC50: > 10 µM
Second compound 0.316 µM
  IC50: 9.62 µM
Second compound 1 µM
  IC50: 3.61 µM
Second compound 3.16 µM
  IC50: 1.27 µM
Second compound 10 µM
  IC50: < 0.0316 µM
[1]
  viability, T/C: 71.2%
[2]
  viability, T/C: 81.3%
[3]
  viability, T/C: 83.4%
[4]
  viability, T/C: 104%
[5]
  viability, T/C: 78.2%
[6]
  viability, T/C: 73.9%
[7]
  viability, T/C: 78.8%
[8]
  viability, T/C: 89%
[9]
  viability, T/C: 61.9%
[10]
  viability, T/C: 84.2%
[11]
  viability, T/C: 70.7%
[12]
  viability, T/C: 92%
[13]
  viability, T/C: 65%
[14]
  viability, T/C: 88%
[15]
  viability, T/C: 73.3%
[16]
  viability, T/C: 66.6%
[17]
  viability, T/C: 83.1%
[18]
  viability, T/C: 49.2%
[19]
  viability, T/C: 70.1%
[20]
  viability, T/C: 56.7%
[21]
  viability, T/C: 63.5%
[22]
  viability, T/C: 55.9%
[23]
  viability, T/C: 48.8%
[24]
  viability, T/C: 46.4%
[25]
  viability, T/C: 46.6%
[26]
  viability, T/C: 63.5%
[27]
  viability, T/C: 53.4%
[28]
  viability, T/C: 53.1%
[29]
  viability, T/C: 34.5%
[30]
  viability, T/C: 42%
[31]
  viability, T/C: 32.5%
[32]
  viability, T/C: 55.2%
[33]
  viability, T/C: 48.4%
[34]
  viability, T/C: 53.4%
[35]
  viability, T/C: 52.4%
[36]
  viability, T/C: 41.7%

## CC(=O)O[C@H]1C(=O)[C@@]2(C)[C@H]([C@H](OC(=O)c3ccccc3)[C@]3(O)C[C@H](OC(=O)[C@H](O)[C@@H](NC(=O)c4ccccc4)c4ccccc4)C(C)=C1C3(C)C)[C@]1(OC(C)=O)CO[C@@H]1C[C@@H]2O + Cc1cnc(CNC(=O)c2c(=O)c3ccc(N4CCCN(C)CC4)nc3n3c2sc2ccccc23)cn1
Second compound 0.0316 µM
  IC50: > 10 µM
Second compound 0.1 µM
  IC50: > 10 µM
Second compound 0.316 µM
  IC50: > 10 µM
Second compound 1 µM
  IC50: > 10 µM
Second compound 3.16 µM
  IC50: > 10 µM
Second compound 10 µM
  IC50: < 0.0316 µM
[1]
  viability, T/C: 78.7%
[2]
  viability, T/C: 93.7%
[3]
  viability, T/C: 72.2%
[4]
  viability, T/C: 75.3%
[5]
  viability, T/C: 92.5%
[6]
  viability, T/C: 93.3%
[7]
  viability, T/C: 104%
[8]
  viability, T/C: 90.9%
[9]
  viability, T/C: 74.8%
[10]
  viability, T/C: 91.5%
[11]
  viability, T/C: 103%
[12]
  viability, T/C: 67.8%
[13]
  viability, T/C: 65.2%
[14]
  viability, T/C: 57.1%
[15]
  viability, T/C: 60.6%
[16]
  viability, T/C: 68.9%
[17]
  viability, T/C: 70.9%
[18]
  viability, T/C: 73.4%
[19]
  viability, T/C: 55.7%
[20]
  viability, T/C: 70.9%
[21]
  viability, T/C: 48.5%
[22]
  viability, T/C: 58.6%
[23]
  viability, T/C: 67.1%
[24]
  viability, T/C: 56.1%
[25]
  viability, T/C: 59.7%
[26]
  viability, T/C: 67.7%
[27]
  viability, T/C: 45.9%
[28]
  viability, T/C: 66.8%
[29]
  viability, T/C: 51.4%
[30]
  viability, T/C: 59.9%
[31]
  viability, T/C: 26.7%
[32]
  viability, T/C: 44.4%
[33]
  viability, T/C: 38.7%
[34]
  viability, T/C: 58.5%
[35]
  viability, T/C: 48.9%
[36]
  viability, T/C: 69.6%

## COc1cccc2c1C(=O)c1c(O)c3c(c(O)c1C2=O)CC(O)(C(=O)CO)CC3OC1CC(N)C(O)C(C)O1 (stereo not drawn) + Cc1cnc(CNC(=O)c2c(=O)c3ccc(N4CCCN(C)CC4)nc3n3c2sc2ccccc23)cn1
Second compound 0.0316 µM
  IC50: > 10 µM
Second compound 0.1 µM
  IC50: > 10 µM
Second compound 0.316 µM
  IC50: > 10 µM
Second compound 1 µM
  IC50: > 10 µM
Second compound 3.16 µM
  IC50: 0.577 µM
Second compound 10 µM
  IC50: < 0.0316 µM
[1]
  viability, T/C: 105%
[2]
  viability, T/C: 85.3%
[3]
  viability, T/C: 63.1%
[4]
  viability, T/C: 81.8%
[5]
  viability, T/C: 71.5%
[6]
  viability, T/C: 59.9%
[7]
  viability, T/C: 108%
[8]
  viability, T/C: 80.2%
[9]
  viability, T/C: 91%
[10]
  viability, T/C: 79.1%
[11]
  viability, T/C: 67%
[12]
  viability, T/C: 58.8%
[13]
  viability, T/C: 89.9%
[14]
  viability, T/C: 51.9%
[15]
  viability, T/C: 80.7%
[16]
  viability, T/C: 44.4%
[17]
  viability, T/C: 50.6%
[18]
  viability, T/C: 74.3%
[19]
  viability, T/C: 82.2%
[20]
  viability, T/C: 44.3%
[21]
  viability, T/C: 88.7%
[22]
  viability, T/C: 53.4%
[23]
  viability, T/C: 47.7%
[24]
  viability, T/C: 57.6%
[25]
  viability, T/C: 55.9%
[26]
  viability, T/C: 61.1%
[27]
  viability, T/C: 55%
[28]
  viability, T/C: 33.6%
[29]
  viability, T/C: 55.7%
[30]
  viability, T/C: 47.1%
[31]
  viability, T/C: 36%
[32]
  viability, T/C: 52.4%
[33]
  viability, T/C: 43.9%
[34]
  viability, T/C: 39.5%
[35]
  viability, T/C: 41.4%
[36]
  viability, T/C: 31.8%

## O=C(NO)c1cnc(N2CCN(S(=O)(=O)c3ccc4ccccc4c3)CC2)nc1 + Cc1cnc(CNC(=O)c2c(=O)c3ccc(N4CCCN(C)CC4)nc3n3c2sc2ccccc23)cn1
Second compound 0.0316 µM
  IC50: 0.244 µM
Second compound 0.1 µM
  IC50: 0.339 µM
Second compound 0.316 µM
  IC50: 0.345 µM
Second compound 1 µM
  IC50: 0.173 µM
Second compound 3.16 µM
  IC50: 0.107 µM
Second compound 10 µM
  IC50: < 0.0316 µM
[1]
  viability, T/C: 119%
[2]
  viability, T/C: 72.2%
[3]
  viability, T/C: 50.9%
[4]
  viability, T/C: 13.3%
[5]
  viability, T/C: 0.34%
[6]
  viability, T/C: 0.45%
[7]
  viability, T/C: 81.2%
[8]
  viability, T/C: 104%
[9]
  viability, T/C: 53%
[10]
  viability, T/C: 11.7%
[11]
  viability, T/C: 1.16%
[12]
  viability, T/C: 1.51%
[13]
  viability, T/C: 92%
[14]
  viability, T/C: 85.8%
[15]
  viability, T/C: 53.8%
[16]
  viability, T/C: 8.35%
[17]
  viability, T/C: 5.71%
[18]
  viability, T/C: 1.25%
[19]
  viability, T/C: 88.7%
[20]
  viability, T/C: 66.8%
[21]
  viability, T/C: 31.8%
[22]
  viability, T/C: 6.88%
[23]
  viability, T/C: 1.42%
[24]
  viability, T/C: 0.68%
[25]
  viability, T/C: 68.2%
[26]
  viability, T/C: 45.7%
[27]
  viability, T/C: 37.1%
[28]
  viability, T/C: 5.54%
[29]
  viability, T/C: 3.32%
[30]
  viability, T/C: 1.98%
[31]
  viability, T/C: 42.8%
[32]
  viability, T/C: 44.6%
[33]
  viability, T/C: 26.1%
[34]
  viability, T/C: 5.86%
[35]
  viability, T/C: 3.74%
[36]
  viability, T/C: 2.11%
